Experimental data: the NIST ThermoML archive (doi:10.1021/je400056z)

Assay: xn = mol fraction of the nth substance listed
Details: Liquid, Vibrating tube method

CCCCCCC [heptane] + O=C=O
Details | mass density [kg/m3]
352.3 K, 20004 kPa, x2 = 0.7514 | 694.21
352.3 K, 21007 kPa, x2 = 0.7514 | 699.11
352.3 K, 22009 kPa, x2 = 0.7514 | 703.64
352.3 K, 22989 kPa, x2 = 0.7514 | 707.97
352.3 K, 24025 kPa, x2 = 0.7514 | 712.39
352.3 K, 24893 kPa, x2 = 0.7514 | 715.94
352.44 K, 4005 kPa, x2 = 0.0218 | 638.36
352.44 K, 5013 kPa, x2 = 0.0218 | 639.84
352.44 K, 6005 kPa, x2 = 0.0218 | 641.24
352.44 K, 7000 kPa, x2 = 0.0218 | 642.57
352.44 K, 8008 kPa, x2 = 0.0218 | 643.95
352.44 K, 9006 kPa, x2 = 0.0218 | 645.27
352.44 K, 10002 kPa, x2 = 0.0218 | 646.56
352.44 K, 11002 kPa, x2 = 0.0218 | 647.79
352.44 K, 12000 kPa, x2 = 0.0218 | 649.14
352.44 K, 13002 kPa, x2 = 0.0218 | 650.25
352.44 K, 13998 kPa, x2 = 0.0218 | 651.46
352.44 K, 15011 kPa, x2 = 0.0218 | 652.7
352.44 K, 16006 kPa, x2 = 0.0218 | 653.84
352.44 K, 17009 kPa, x2 = 0.0218 | 654.98
352.44 K, 17993 kPa, x2 = 0.0218 | 656.08
352.44 K, 18998 kPa, x2 = 0.0218 | 657.17
352.44 K, 20004 kPa, x2 = 0.0218 | 658.27
352.44 K, 21002 kPa, x2 = 0.0218 | 659.34
352.44 K, 22002 kPa, x2 = 0.0218 | 660.39
352.44 K, 23003 kPa, x2 = 0.0218 | 661.43
352.44 K, 23998 kPa, x2 = 0.0218 | 662.47
352.44 K, 25014 kPa, x2 = 0.0218 | 663.51
352.51 K, 9000 kPa, x2 = 0.5085 | 656.72
352.51 K, 10004 kPa, x2 = 0.5085 | 660.28
352.51 K, 11004 kPa, x2 = 0.5085 | 663.66
352.51 K, 12007 kPa, x2 = 0.5085 | 666.9
352.51 K, 13000 kPa, x2 = 0.5085 | 670.03
352.51 K, 14003 kPa, x2 = 0.5085 | 673
352.51 K, 15002 kPa, x2 = 0.5085 | 675.9
352.51 K, 15998 kPa, x2 = 0.5085 | 678.62
352.51 K, 17010 kPa, x2 = 0.5085 | 681.33
352.51 K, 18003 kPa, x2 = 0.5085 | 683.88
352.51 K, 19006 kPa, x2 = 0.5085 | 686.38
352.51 K, 20013 kPa, x2 = 0.5085 | 688.8
352.51 K, 21004 kPa, x2 = 0.5085 | 691.17
352.51 K, 22004 kPa, x2 = 0.5085 | 693.46
352.51 K, 23002 kPa, x2 = 0.5085 | 695.71
352.51 K, 24007 kPa, x2 = 0.5085 | 697.91
352.51 K, 25011 kPa, x2 = 0.5085 | 700.05
352.54 K, 15235 kPa, x2 = 0.9496 | 511.88
352.54 K, 15989 kPa, x2 = 0.9496 | 538.42
352.54 K, 17004 kPa, x2 = 0.9496 | 568.84
352.54 K, 18001 kPa, x2 = 0.9496 | 594.2
352.54 K, 18993 kPa, x2 = 0.9496 | 616.18
352.54 K, 20006 kPa, x2 = 0.9496 | 635.42
352.54 K, 20999 kPa, x2 = 0.9496 | 652.26
352.54 K, 22018 kPa, x2 = 0.9496 | 667.75
352.54 K, 22994 kPa, x2 = 0.9496 | 681.03
352.54 K, 24034 kPa, x2 = 0.9496 | 693.84
362.09 K, 12975 kPa, x2 = 0.7514 | 586.38
362.09 K, 14000 kPa, x2 = 0.7514 | 602.3
362.09 K, 14863 kPa, x2 = 0.7514 | 613.15
362.09 K, 16010 kPa, x2 = 0.7514 | 625.83
362.09 K, 17009 kPa, x2 = 0.7514 | 635.46
362.09 K, 18017 kPa, x2 = 0.7514 | 644.3
362.09 K, 19007 kPa, x2 = 0.7514 | 652.35
362.09 K, 20005 kPa, x2 = 0.7514 | 659.83
362.09 K, 21006 kPa, x2 = 0.7514 | 666.86
362.09 K, 22003 kPa, x2 = 0.7514 | 672.93
362.09 K, 22995 kPa, x2 = 0.7514 | 679.37
362.09 K, 24000 kPa, x2 = 0.7514 | 685.55
